In PMC6154745 (Oncotarget, 2018):
Marks after values point to notes of the source that are not given here.

Experiments:
heart miRNAs = test: miRNA expression (microarray), Study 3, heart; assay type: in vivo, ICR (CD-1) mice
Method: (§1) Each group was composed of 10 female mice.
(§2) The urine was collected for 8 h and pooled from the mice belonging to each experimental group in Study 3 by using metabolic cages during the day preceding euthanasia of mice. Immediately after sacrifice, a bronchoalveolar lavage (BAL) was performed and used for preparing BALF, and the blood was collected and used for preparing serum. BALF and blood serum were pooled within each experimental group. The organs reported in the general design of the studies were collected, as previously described. Immediately after collection, each organ or fluid was immersed in RNAlater and kept at -80°C for miRNA analysis. Portions of the organs used in Study 1 and Study 2 were stored at -80°C for evaluating DNA damage.
(§3) For evaluating the expression of pulmonary miRNAs we used the 7th generation miRCURY LNA™ microRNA Array (Exiqon), which contains 3,100 capture probes covering human, mouse and rat miRNAs. In particular, this array covers 1,135 mouse miRNAs, i.e. the 88.6% of the 1,281 mouse miRNAs listed in miRBase 19. Microarray analyses were carried out as previously described.
(§4) Treatment-related differences in body weights, in the frequency of MN NCE, and in the levels of pulmonary DNA adducts and 8-oxo-dGuo, all of them expressed as means ± SE within each group of mice, were evaluated for statistical significance by ANOVA followed by Student's t test for unpaired data. miRNA microarray data, after local background subtraction, log transformation, and normalization were analyzed by GeneSpring software (Agilent, Santa Clara, CA), and expression data were median centered by using the GeneSpring normalization option.

colon miRNAs = test: miRNA expression (microarray), Study 3, colon; assay type: in vivo, ICR (CD-1) mice
Method: as §1, §2, §3, §4

skeletal muscle miRNAs = test: miRNA expression (microarray), Study 3, skeletal muscle; assay type: in vivo, ICR (CD-1) mice
Method: as §1, §2, §3, §4

lung DNA [1] = test: Bulky DNA adducts by 32P postlabeling, Study 2, lung; assay type: in vivo, ICR (CD-1) mice
Method: (§5) DNA was extracted from tissue specimens (50 mg) collected individually from the lungs of 40 Swiss H mice used in Study 1 and from lungs, heart and liver of 80 ICR (CD-1) mice used in Study 2, as previously described. Bulky DNA adducts, after butanol enrichment, and 8-hydroxy-2’-deoxyguanosine (8-oxo-dGuo) were measured by ^32P postlabeling as previously described.

lung DNA [2] = test: 8-oxo-dGuo (oxidative DNA damage) in lung by 32P postlabeling, Study 1; assay type: in vivo, Swiss H mice; details: for 8-oxo-dGuo: lung
Method: as §1, §5

liver miRNAs = test: miRNA expression (microarray), Study 3, liver; assay type: in vivo, ICR (CD-1) mice
Method: as §1, §2, §3, §4

urinary bladder miRNAs = test: miRNA expression (microarray), Study 3, urinary bladder; assay type: in vivo, ICR (CD-1) mice
Method: as §1, §2, §3, §4

kidney miRNAs = test: miRNA expression (microarray), Study 3, kidney; assay type: in vivo, ICR (CD-1) mice
Method: as §1, §2, §3, §4

heart DNA = test: Bulky DNA adducts by 32P postlabeling, Study 2, heart; assay type: in vivo, ICR (CD-1) mice; details: for Bulky DNA adducts: Heart; for decrease of DNA adduct levels vs MCS-exposed mice without celecoxib / increase of DNA adduct levels over sham-exposed mice: heart
Method: as §1, §5

lung DNA [3] = test: Bulky DNA adducts in lung by 32P postlabeling, Study 1; assay type: in vivo, Swiss H mice
Method: as §1, §5

[4] = mice, 1,000 mg/kg diet; cited from earlier work
brain miRNAs = test: miRNA expression (microarray), Study 3, brain; assay type: in vivo, ICR (CD-1) mice; details: high dose
Method: as §1
as §2, with “damage. […]” for “damage.”
as §4

- Bulky DNA adducts (lung DNA [1]; F): 3.7 ± 0.31^c adducts/10^8 nucleotides
- Bulky DNA adducts (lung DNA [1]; M): 4.4 ± 0.56^c adducts/10^8 nucleotides
- Bulky DNA adducts (lung DNA [1]; M + F): 4.0 ± 0.31^c adducts/10^8 nucleotides
- increase of DNA adduct levels over sham-exposed mice (lung DNA [1]; combined genders): 2.7 fold
- increase of DNA adduct levels over sham-exposed mice (lung DNA [1]; females): 2.5 fold
- increase of DNA adduct levels over sham-exposed mice (lung DNA [1]; males): 2.9 fold
- autoradiographic spots formed (lung DNA [1]; smoke-free mice): 3
- Bulky DNA adducts (heart DNA; F): 3.6 ± 0.37^c adducts/10^8 nucleotides
- Bulky DNA adducts (heart DNA; M): 3.3 ± 0.18^c adducts/10^8 nucleotides
- Bulky DNA adducts (heart DNA; M + F): 3.4 ± 0.17^c adducts/10^8 nucleotides
- increase of DNA adduct levels over sham-exposed mice (heart DNA; combined genders): 2.2 fold
- increase of DNA adduct levels over sham-exposed mice (heart DNA; females): 2.4 fold
- increase of DNA adduct levels over sham-exposed mice (heart DNA; males): 2.1 fold
- increase of pulmonary DNA adducts vs sham-exposed mice (lung DNA [3]; MCS-exposed mice given celecoxib): 8.5 fold
- increase of pulmonary DNA adducts vs sham-exposed mice (lung DNA [3]; combined genders): 3.3 fold
- Bulky DNA adducts (lung DNA [3]; lung, F): 4.3 ± 0.34^b adducts/10^8 nucleotides
- Bulky DNA adducts (lung DNA [3]; lung, M): 4.3 ± 0.40^b adducts/10^8 nucleotides
- Bulky DNA adducts (lung DNA [3]; lung, M + F): 4.3 ± 0.25^b adducts/10^8 nucleotides
- autoradiographic spots absent in sham-exposed mice (lung DNA [3]; lung, MCS-free mice): 3
Structure (SMILES): Cc1ccc(-c2cc(C(F)(F)F)nn2-c2ccc(S(N)(=O)=O)cc2)cc1 [Celecoxib, 4-[5-(4-methylphenyl)-3-(trifluoromethyl)-1H-pyrazol-1-yl] benzene-1-sulfonamide]
- upregulated/downregulated miRNAs (heart miRNAs; MCS-exposed mice): 0/1
- upregulated/downregulated miRNAs (heart miRNAs; MCS-free mice): 0/2
- number of miRNAs modulated by celecoxib (heart miRNAs; high dose): 3
- upregulated/downregulated miRNAs (colon miRNAs; MCS-exposed mice): 0/2
- miR-185-5p downregulation (colon miRNAs; MCS-free mice): 8 fold
- miR-301 downregulation (colon miRNAs; MCS-free mice): 6 fold
- upregulated/downregulated miRNAs (colon miRNAs; MCS-free mice): 1/4
- number of miRNAs modulated by celecoxib (colon miRNAs; high dose): 7
- miR-30e upregulation (skeletal muscle miRNAs; MCS-exposed mice): 9 fold
- miR-125b downregulation (skeletal muscle miRNAs; MCS-exposed mice): 11 fold
- miR-511 upregulation (skeletal muscle miRNAs; MCS-exposed mice): 5 fold
- miR-695 downregulation (skeletal muscle miRNAs; MCS-exposed mice): 6 fold
- miR-1964-5p downregulation (skeletal muscle miRNAs; MCS-exposed mice): 5 fold
- upregulated/downregulated miRNAs (skeletal muscle miRNAs; MCS-exposed mice): 6/10
- upregulated/downregulated miRNAs (skeletal muscle miRNAs; MCS-free mice): 0/0
- number of miRNAs modulated by celecoxib (skeletal muscle miRNAs; high dose): 16
- decrease of DNA adduct levels vs MCS-exposed mice without celecoxib (lung DNA [1]; combined genders): 1.6 fold
- decrease of DNA adduct levels vs MCS-exposed mice without celecoxib (lung DNA [1]; males): 1.5 fold
- decrease of DNA adduct levels vs MCS-exposed mice without celecoxib (lung DNA [1]; printed 'males' a second time): 1.7 fold
- 8-oxo-dGuo (lung DNA [2]; F): 2.3 ± 0.28 8-oxo-dGuo/10^5 nucleotides
- 8-oxo-dGuo (lung DNA [2]; M): 1.6 ± 0.29 8-oxo-dGuo/10^5 nucleotides
- 8-oxo-dGuo (lung DNA [2]; M + F): 1.9 ± 0.22 8-oxo-dGuo/10^5 nucleotides
- increase of pulmonary 8-oxo-dGuo levels vs sham-exposed mice (lung DNA [2]; mouse, in vivo): did not affect
- upregulated/downregulated miRNAs (liver miRNAs; MCS-exposed mice): 2/1
- miR-30c-2-3p downregulation (liver miRNAs; MCS-free mice): 9 fold
- miR-30e downregulation (liver miRNAs; MCS-free mice): 10 fold
- miR-802-3p downregulation (liver miRNAs; MCS-free mice): 7 fold
- upregulated/downregulated miRNAs (liver miRNAs; MCS-free mice): 0/15
- number of miRNAs modulated by celecoxib (liver miRNAs; high dose): 18
- miR-30c-2-3p downregulation (urinary bladder miRNAs; MCS-exposed mice): 7 fold
- miR-30e upregulation (urinary bladder miRNAs; MCS-exposed mice): 6 fold
- miR-185-5p downregulation (urinary bladder miRNAs; MCS-exposed mice): 14 fold
- miR-701-3p upregulation (urinary bladder miRNAs; MCS-exposed mice): 5 fold
- miR-802-3p upregulation (urinary bladder miRNAs; MCS-exposed mice): 5 fold
- miR-1964-5p downregulation (urinary bladder miRNAs; MCS-exposed mice): 5 fold
- upregulated/downregulated miRNAs (urinary bladder miRNAs; MCS-exposed mice): 8/12
- miR-30c-2-5p downregulation (urinary bladder miRNAs; MCS-free mice): 10 fold
- miR-30e downregulation (urinary bladder miRNAs; MCS-free mice): 8 fold
- miR-185-5p downregulation (urinary bladder miRNAs; MCS-free mice): 20 fold
- miR-301 downregulation (urinary bladder miRNAs; MCS-free mice): 8 fold
- upregulated/downregulated miRNAs (urinary bladder miRNAs; MCS-free mice): 0/10
- number of miRNAs modulated by celecoxib (urinary bladder miRNAs; high dose): 30
- upregulated/downregulated miRNAs (kidney miRNAs; MCS-exposed mice): 0/0
- miR-30c-2-3p downregulation (kidney miRNAs; MCS-free mice): 14 fold
- miR-30c-2-5p downregulation (kidney miRNAs; MCS-free mice): 13 fold
- miR-30e downregulation (kidney miRNAs; MCS-free mice): 8 fold
- miR-185-5p downregulation (kidney miRNAs; MCS-free mice): 25 fold
- miR-301 downregulation (kidney miRNAs; MCS-free mice): 7 fold
- miR-802-3p downregulation (kidney miRNAs; MCS-free mice): 6 fold
- miR-1964-5p downregulation (kidney miRNAs; MCS-free mice): 7 fold
- upregulated/downregulated miRNAs (kidney miRNAs; MCS-free mice): 7/20
- number of miRNAs modulated by celecoxib (kidney miRNAs; high dose): 27
- decrease of DNA adduct levels vs MCS-exposed mice without celecoxib (heart DNA; combined genders): 1.3 fold
- decrease of DNA adduct levels vs MCS-exposed mice without celecoxib (heart DNA; females): 1.5 fold
- decrease of DNA adduct levels vs MCS-exposed mice without celecoxib (heart DNA; males (not statistically significant)): 1.1 fold
- plasma concentration [4]: 1600 ng/mL
- number of miRNAs modulated by celecoxib (brain miRNAs): 0
